Holding throughout (type): cell-based
Assay [1] concerns AKT protein phosphorylated on serine 473 (pAKT-S473) in PC3 human prostate carcinoma line. Put plainly: Study of pAKT expression in PC3 human prostate carcinoma cells measured by western blotting (Test A). The note with it: PC-3, 1 to 2 hours incubation, approximate absolute IC50, mean of two experiments. The protocol:
The inhibitory activity of the molecules on AKT phosphorylation is measured either by western blotting using the technique described below, or by the MSD Multi-spot Biomarker detection technique from Meso Scale Discovery also described below. […] Study of pAKT Expression in Pc3Human Prostate Carcinoma Cells Measured by Western Blotting (Test A): This test is based on measuring the expression of the AKT protein phosphorylated on […]. […] On day 2, the cells are incubated in the presence or absence of the test products for 1 to 2 hours at 37° C. in the presence of 5% CO2. The molecules, diluted in dimethyl sulphoxide (DMSO Sigma #D2650), are added from a 10-times concentrated stock solution, the final percentage of DMSO being 0.1%. […] After this incubation, the cells are lysed for the preparation of the proteins. […] The lysate is centrifuged for 10 min at 6000 rpm. 155 μl of supernatant are recovered. 150 μl are incubated for denaturation for 5 min at 95° C. in the presence of 4× NuPAGE LDS Sample Buffer diluted 4-fold (InVitrogen ref NP0007) and of 10× NuPAGE Sample Reducing Agent diluted 10-fold (InVitrogen ref NP0009). These samples are then frozen at -20° C. […] The gel is then transferred on to an Invitrolon PVDF membrane (Invitrogen #LC2007) permeabilised beforehand for a few seconds in ethanol (Ethanol Fischer Scientific #E/0600DF/15). The transfer is carried out in a Biorad tank at 30 volts overnight or at 60 volts for 3 hours, in the presence of 20× NUPAGE Transfer Buffer diluted 20-fold (InVitrogen ref NP0006). The membrane is then saturated in saturating solution composed of TBS (10× Tris Buffered Saline, Sigma #T5912, diluted 10-fold), 0.1% Tween 20 (Sigma #P5927) and 3% BSA (Bovine Serum Albumin Fraction V, Sigma #A4503) for 6 h after overnight transfer or else for 1 h after transfer for a period of 3 h. […] Two rinses for 5 min in washing solution composed of TBS and 0.1% Tween 20 are carried out before hybridisation of the secondary antibodies. The secondary antibodies are diluted to 1/10000th for the rabbit anti-Mouse IgG HRP antibody ([…] Promega) and to 1/10000th for the goat anti-Rabbit IgG HRP antibody ([…] Promega) in saturating solution, and then shaken for 1 h at ambient temperature. Two rinses for 30 min in washing solution are carried out and then a rinse for 5 min in H2O is carried out in order to eliminate the remaining Tween 20. […] The luminescence is read with the FujiFilm device (Ray Test). The FUJI device measures the total luminescence signal obtained (AU) for each band selected. It then subtracts the background noise (BG) proportional to the size of the band selected (Area), said background noise being calculated from a specific background noise band, with a view to obtaining the specific signal (AU-BG) for each band. The band obtained in the absence of product and in the presence of 0.1% DMSO is considered to be the 100% signal. The software calculates the % specific activity (Ratio) obtained for each band selected as a function of this 100% signal. The percentage inhibition is calculated for each concentration according to the formula (100%-Ratio). Two independent experiments make it possible to calculate the mean of the percentages of inhibition obtained at a given concentration for the products tested only at one concentration. […] Two independent experiments make it possible to calculate the mean of the IC50 values.
(In general: A western blot detects proteins with antibodies after separation by electrophoresis.)

Assay [2] concerns translocation of the LC3 protein in Hela GFP-LC3 cells. Put plainly: Study of the translocation of the LC3 protein in Hela human cells, measured by image analysis cytometry (Test C, autophagy). The note with it: Homo sapiens, HeLa, 2 h, Hela GFP-LC3 cells with LC3 granulations, EBSS + 10 μM hydroxychloroquine, absolute IC50. The protocol:
The inhibitory activity of the molecules on autophagy is measured by the translocation of the LC3 protein from the cytoplasm to the autophagosomes. For this, Hela cells were transfected with a vector encoding the chimeric protein GFP-LC3. A Hela clone stably expressing the GFP-LC3 protein was selected.
Study of the Translocation of the LC3 Protein in Hela Human Cells, Measured by Image Analysis Cytometry (Test C):
On day 2, the cells are washed twice with EBSS (Sigma #E3024). The cells are then incubated in EBSS, 10 μM of hydroxychloroquine and test products for 2 h at 37° C. in the presence of 5% CO2. The molecules are diluted in dimethyl sulphoxide (DMSO Sigma #D2650), the final DMSO percentage being 0.1%.
After this incubation, the cells are fixed with 4% paraformaldehyde (Sigma #HT501128 4 L) for 10 min. […] The 96-well plates are then read with the iCyte image analysis cytometer (Compucyte).
Two independent experiments make it possible to calculate the mean of the IC50 values.

Assay [3] concerns P. falciparum (highly chloroquine-resistant strain Fcm29-Cameroon). Nature of the assay: Antimalarial activity test (radioactive micromethod of Desjardins). The note with it: Plasmodium falciparum, Erythrocyte, infected human erythrocytes, 48 h, tritiated hypoxanthine incorporation. The procedure: Antimalarial Activity Test
The P. falciparum strains are cultured in solutions of RPM! […] For each assay, the parasites are incubated with selected concentrations of drugs for 48 h at 37° C. in a humid atmosphere and at 5% CO2. Artemisinin, artesunate and also chloroquine diphosphate are used as reference molecules. The first dilution of the drug is prepared at 1 mg/ml in dimethyl sulphoxide. The range of successive daughter solution dilutions is also prepared in dimethyl sulphoxide. […] These dilutions are then added to the parasites in culture in the microplates. […] The growth of the parasites is measured by incorporation of tritiated hypoxanthine (added 24 h after the beginning of the exposure to the drug) compared with the incorporation in the absence of drug.

Assay [4] concerns AKT protein phosphorylated on serine 473 (P-AKT-S473) in PC3 human prostate carcinoma line. Nature of the assay: Study of pAKT expression in PC3 human prostate carcinoma cells measured by the MSD Multi-spot Biomarker Detection technique (Test B). The conditions noted are these: Homo sapiens, PC-3, P-AKT-S473 in PC3 cells, MSD sandwich immunoassay, 1 to 2 h incubation; absolute IC50, mean of 2 experiments. The protocol: The inhibitory activity of the molecules on AKT phosphorylation is measured either by western blotting using the technique described below, or by the MSD Multi-spot Biomarker detection technique from Meso Scale Discovery also described below.
Study of pAKT Expression in PC3Human Prostate Carcinoma Cells Measured by the MSD Multi-Spot Biomarker Detection Technique from Meso Scale Discovery (Test B):
The primary antibody specific for P-AKT-S473 (Kit #K151CAD) is coated onto an electrode in each well of the 96-well plates of the MSD kit: after the addition of a protein lysate to each well, the signal is visualised by adding a secondary detection antibody labelled with an electrochemiluminescent compound. The procedure followed is that described in the kit.
On day 2, the cells are incubated in the presence or absence of the test products for 1 to 2 h at 37° C. in the presence of 5% of CO2. The molecules, diluted in dimethyl sulphoxide (DMSO Sigma #D2650), are added from a 20-times concentrated stock solution, the final percentage of DMSO being 0.1%.
After this incubation, the cells are lysed for the preparation of the proteins. […] At this stage, the plates containing the lysates can be frozen at −20° C. or at −80° C.
The wells of the 96-well plates of the MSD kit are saturated for 1 h at ambient temperature with the blocking solution of the MSD kit. Four washes are carried out with 150 μl of Tris Wash Buffer of the MSD kit. The lysates previously prepared are transferred into the 96-well multi-spot plates of the MSD kit and incubated for 1 h at ambient temperature, with shaking. Four washes are carried out with 150 μl of Tris Wash Buffer of the MSD kit. 25 μl of the MSD sulfo-tag detection antibody solution are added to the wells and incubated for 1 h at ambient temperature, with shaking. Four washes are carried out with 150 μl of Tris Wash Buffer of the MSD kit. 150 μl of Read Buffer of the MSD kit are added to the wells and the plates are read immediately on the S12400 instrument from Meso Scale Discovery.
The instrument measures a signal for each well. Wells without cells and containing the lysis buffer serve to determine the background noise that will be subtracted from all the measurements (min). The wells containing cells in the absence of product and in the presence of 0.1% DMSO are considered to be the 100% signal (max). The percentage inhibition is calculated for each concentration of test product according to the following formula: (1−((test−min)/(max−min)))×100.
2 independent experiments make it possible to calculate the mean of the IC50 values.

In general, IC50 refers to the concentration needed to halve the response being measured. One may read the inhibition as the change of the read-out against control, counted positive when it falls.

The molecule `COc1ccc(C(C)N2c3nc(N4CCOCC4)cc(=O)n3CC[C@H]2C(F)(F)F)cc1` (mixture of isomers) [Example 9, (8S)-9-[(1R and 1S)-1-(4-methoxyphenyl)ethyl]-2-(morpholin-4-yl)-8-(trifluoromethyl)-6,7,8,9-tetrahydro-4H-pyrimido[1,2-a]pyrimidn-4-one] showed a half-maximal inhibitory concentration (IC50) in assay [1] of 0.676 µM.
For `O=C(c1ccccc1)N1c2nc(N3CCOCC3)cc(=O)n2CC[C@H]1C(F)(F)F` [Example 18, (S)-9-Benzoyl-2-morpholin-4-yl-8-trifluoromethyl-6,7,8,9-tetrahydropyrimido[1,2-a]pyrimidin-4-one], the results for the half-maximal inhibitory concentration (IC50) in assay [1] and in assay [2] were 0.335 µM and > 1 µM, respectively.
On to `O=c1cc(N2CCOCC2)nc2n1CC[C@@H](C(F)(F)F)N2CC(O)Cc1ccccc1` (stereo partly drawn) [Example 55, 9-(2-Hydroxy-3-phenylpropyl)-2-morpholin-4-yl-8-(S)-trifluoromethyl-6,7,8,9-tetrahydropyrimido[1,2-a]pyrimidin-4-one], for which, in assay [3], the inhibition at 0.1 µM was 81% and the inhibition at 1 µM came out at 93%.
As to `COc1ccc([C@H](O)CN2c3nc(N4CCOCC4)cc(=O)n3CC[C@H]2C(F)(F)F)c(Cl)c1` [Example 54, 9-[(S)-2-(2-Chloro-4-methoxyphenyl)-2-hydroxyethyl]-2-morpholin-4-yl-8-(S)-trifluoromethyl-6,7,8,9-tetrahydro-pyrimido[1,2-a]pyrimidin-4-one], in assay [3], the inhibition at 0.1 µM was determined as 83% and the inhibition at 1 µM was found to be 99%.
With `O=c1cc(N2CCOCC2)nc2n1CC[C@@H](C(F)(F)F)N2C[C@@H](O)c1cc2ccccc2s1` [Example 48, 9-((R)-2-Benzo[b]thiophen-2-yl-2-hydroxyethyl)-2-morpholin-4-yl-8-(S)-trifluoromethyl-6,7,8,9-tetrahydro-pyrimido[1,2-a]pyrimidin-4-one], in assay [3], the inhibition at 0.1 µM came out at 89% and the inhibition at 1 µM is 96%.
For `COc1cc(Cl)ccc1[C@H](O)CN1c2nc(N3CCOCC3)cc(=O)n2CC[C@H]1C(F)(F)F` [Example 53, 9-[(S)-2-(4-Chloro-2-methoxyphenyl)-2-hydroxyethyl]-2-morpholin-4-yl-8-(S)-trifluoromethyl-6,7,8,9-tetrahydro-pyrimido[1,2-a]pyrimidin-4-one], in assay [3], the inhibition at 0.1 µM is 75% and the inhibition at 1 µM worked out at 99%.
For `O=c1cc(N2CCOCC2)nc2n1CC[C@@H](C(F)(F)F)N2c1ccc(F)cc1` [Example 13, (8S)-9-(4-fluorophenyl)-2-(morpholin-4-yl)-8-(trifluoromethyl)-6,7,8,9-tetrahydro-4H-pyrimido[1,2-a]pyrimidin-4-one], the values for the concentration for half-maximal inhibition (IC50) in assay [4] and in assay [2] were 0.025 µM and 0.632 µM, respectively. Also, in assay [3], the inhibition at 1 µM was 52%.
The like results for `COc1ccc(N2c3nc(N4CCOCC4)cc(=O)n3CC[C@H]2C(F)(F)F)cc1` [Example 27, (8S)-9-(4-methoxyphenyl)-2-(morpholin-4-yl)-8-(trifluoromethyl)-6,7,8,9-tetrahydro-4H-pyrimido[1,2-a]pyrimidin-4-one] were, in that order, 0.01 µM, 0.363 µM and 36%.
In the case of `COc1ccccc1CCN1c2nc(N3CCOCC3)cc(=O)n2CC[C@H]1C(F)(F)F` [Example 24, (8S)-9-[2-(2-methoxyphenyl)ethyl]-2-(morpholin-4-yl)-8-(trifluoromethyl)-6,7,8,9-tetrahydro-4H-pyrimido[1,2-a]pyrimidin-4-one], the half-maximal inhibitory concentration (IC50) in assay [4] was found to be 0.009 µM; in assay [2], 0.103 µM. In assay [3], the inhibition at 0.1 µM was 40%. For the same molecule, in assay [3], the inhibition at 1 µM was determined as 100%.
On to `O=c1cc(N2CCOCC2)nc2n1CC[C@@H](C(F)(F)F)N2CCc1ccc(O)cc1` [Example 56, 9-[2-(4-Hydroxyphenyl)ethyl]-2-morpholin-4-yl-8-(S)-trifluoromethyl-6,7,8,9-tetrahydropyrimido[1,2-a]pyrimidin-4-one], for which, in assay [3], the inhibition at 0.1 µM is 94% and the inhibition at 1 µM turned out to be 99%.
As to `CN(C)CC(=O)Nc1cccc([C@H](O)CN2c3nc(N4CCOCC4)cc(=O)n3CC[C@H]2C(F)(F)F)c1` [Example 50, 2-Dimethylamino-N-{3-[(S)-1-hydroxy-2-((S)-8-morpholin-4-yl-6-oxo-2-trifluoromethyl-3,4-dihydro-2H,6H-pyrimido[1,2-a]pyrimidin-1-yl)ethyl]phenyl}acetamide], in assay [3], the inhibition at 0.1 µM was found to be 79% and the inhibition at 1 µM worked out at 99%.
